From PMC4684357, “Comparative Evaluation of the Antimicrobial Activity of Different Antimicrobial Peptides against a Range of Pathogenic Bacteria” (PLoS ONE, 2015) come the findings set out here.

Assay [1] deals with E. coli ATCC25922. Format: cell-based, Escherichia coli. From the text: (§1) The Yersinia ruckeri strain was kindly provided by Prof. Kurt Buchmann, University of Copenhagen, Faculty of Health and Medical Sciences, and the Flavobacterium psychrophilum strain was kindly provided by Prof. Inger Dalsgaard, DTU, Denmark. BW25113 is the Escherichia coli wild-type strain, a derivative of the F^-,λ^- E. coli K12 strain BD792 which was used in generating the KEIO collection. E. coli ATCC25922 is a clinical isolate, serotype O6 and is often used as control strain in antimicrobial susceptibility testing. All strains were grown in Mueller-Hinton-II medium, except L. monocytogenes which was grown in BHI medium and F. psychrophilum which was grown in TYES medium (Tryptone yeast extract plus salts). Incubation took place aerobically at 37°C, except for Y. ruckeri and A. salmonicida, which were grown aerobically at RT (20°C), C. jejuni NCTC11168 which was grown under microaerophilic conditions at 42°C and F. psychrophilum 1947 which was grown under aerobic conditions at 15°C. All plates were incubated for 18–20 hours, except the F. psychrophilum plates, which were incubated for 72 hours.
All plates were incubated for 18–20 hours, except the F. psychrophilum plates which were incubated for 72 hours.
All the MIC measurements were carried out in duplicate.

The subject of assay [2] is E. coli ATCC25922. As for the experimental part: The minimum inhibitory concentrations (MICs) of the AMPs were measured in 96-well microtiter plates according to the Clinical and Laboratory Standards Institute (CLSI, formerly National Committee for Clinical Laboratory Standards [NCCLS]). Briefly, liquid Mueller-Hinton-II medium containing increasing concentrations of AMPs is inoculated with a defined number of cells (approx. 10^5 CFUs/ml) in 96-well microtiter plates (polypropylene), whereas each plate also includes a positive growth control and a negative control (sterile control). After incubation, the MIC is determined by the lowest concentration showing no visible growth. All plates were incubated for 18–20 hours, except the F. psychrophilum plates which were incubated for 72 hours. […]

A further assay has as its system BW25113 wild-type. Description: MIC in LPS backgrounds. It counts as cell-based, Escherichia coli. As to conditions: E. coli BW25113 wild-type; CLSI; triplicates.
Text: as §1
(§2) The minimum inhibitory concentrations (MICs) of the AMPs were measured in 96-well microtiter plates according to the Clinical and Laboratory Standards Institute (CLSI, formerly National Committee for Clinical Laboratory Standards [NCCLS]). Briefly, liquid Mueller-Hinton-II medium containing increasing concentrations of AMPs is inoculated with a defined number of cells (approx. 10^5 CFUs/ml) in 96-well microtiter plates (polypropylene), whereas each plate also includes a positive growth control and a negative control (sterile control). After incubation, the MIC is determined by the lowest concentration showing no visible growth. All plates were incubated for 18–20 hours, except the F. psychrophilum plates which were incubated for 72 hours.

Another assay relates to BW25113 ΔrfaC. Format: cell-based, Escherichia coli. The note with it: E. coli BW25113 ΔrfaC; CLSI; triplicates.
Text: as §1, §2

A further assay has as its system BW25113 ΔrfaE. Format: cell-based, Escherichia coli. The note with it: E. coli BW25113 ΔrfaE; CLSI; triplicates.
Text: as §1, §2

The next assay concerns BW25113 ΔrfaF. It counts as cell-based, Escherichia coli. The note with it: E. coli BW25113 ΔrfaF; CLSI; triplicates.
Text: as §1, §2

The subject of the next assay is BW25113 ΔrfaG. It counts as cell-based, Escherichia coli. The note with it: E. coli BW25113 ΔrfaG; CLSI; triplicates.
Text: as §1, §2

The test system of a further assay is ATCC25922 ΔrfaC. It counts as cell-based, Escherichia coli. The note with it: E. coli ATCC25922 ΔrfaC; CLSI; triplicates.
Text: as §1, §2
(§3) Construction of knock-out mutants of E. coli ATCC25922 were constructed using the λ-Red recombinase gene replacement system. Primers for amplification of the npt gene of pKD4 are listed in S1 Table. The correct double-crossover and recombination event was confirmed by primers listed in S1 Table and by sequencing. Finally, the kanamycin cassette was removed.

Another assay concerns ATCC25922 ΔrfaE. It counts as cell-based, Escherichia coli. As to conditions: E. coli ATCC25922 ΔrfaE; CLSI; triplicates.
Text: as §1, §2, §3

The test system of another assay is ATCC25922 ΔrfaF. Format: cell-based, Escherichia coli. The note with it: E. coli ATCC25922 ΔrfaF; CLSI; triplicates.
Text: as §1, §2, §3

For a further assay, the system named is ATCC25922 ΔrfaG. Format: cell-based, Escherichia coli. The note with it: E. coli ATCC25922 ΔrfaG; CLSI; triplicates.
Text: as §1, §2, §3

For a further assay, the target named is T1, proteinase K (Parengyodontium album, UniProt P06873).
T1 construct: purchased NEB P8107S
Description: Protease stability: MIC after incubation with proteinase K. It counts as in vitro ADME. The note with it: for Antimicrobial Activity MIC: proteinase K, protease:AMP 1:100 (w/w), 100 mM Tris-HCl pH 7.5, 37°C, test strain E. coli ATCC25922, triplicates. The protocol: as §2
(§4) AMPs were heated at 70°C or 90° for 5, 15 or 30 minutes. An untreated control, which was kept at RT, was used as a control. After incubation at 70°C or 90°C, the minimum inhibitory concentrations (MICs) of the peptides were measured in 96-well microtiter plates according the Clinical and Laboratory Standards Institute (CLSI, formerly National Committee for Clinical Laboratory Standards [NCCLS]) […] After incubation, the samples were cooked for 10 minutes at 90°C to inactivate the protease. Afterwards, the antimicrobial activity was determined by measuring the minimal inhibitory concentration (see Antimicrobial susceptibility testing)). E. coli ATCC25922 was used as a test strain.

A further assay deals with T2, trypsin (Bos taurus, UniProt P00760).
T2 construct: purchased NEB P8101
T2 sequence (P00760 24-246): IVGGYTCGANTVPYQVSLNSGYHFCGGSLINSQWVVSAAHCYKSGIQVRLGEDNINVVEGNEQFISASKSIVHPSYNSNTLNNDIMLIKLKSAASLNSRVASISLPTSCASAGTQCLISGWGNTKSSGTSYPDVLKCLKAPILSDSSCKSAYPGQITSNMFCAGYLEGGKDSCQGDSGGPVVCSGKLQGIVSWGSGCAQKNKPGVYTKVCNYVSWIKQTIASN
Description: Protease stability: MIC after incubation with trypsin. Format: in vitro ADME. The note with it: for Antimicrobial Activity MIC: trypsin, protease:AMP 1:100 (w/w), trypsin-ultra reaction buffer, 37°C, test strain E. coli ATCC25922, triplicates. As for the experimental part: as §2, §4

Read-outs that look alike come from different tables or passages of the source. Residues, ends and D or L forms follow the SMILES beside them.

T1 sequence (P06873 106-384): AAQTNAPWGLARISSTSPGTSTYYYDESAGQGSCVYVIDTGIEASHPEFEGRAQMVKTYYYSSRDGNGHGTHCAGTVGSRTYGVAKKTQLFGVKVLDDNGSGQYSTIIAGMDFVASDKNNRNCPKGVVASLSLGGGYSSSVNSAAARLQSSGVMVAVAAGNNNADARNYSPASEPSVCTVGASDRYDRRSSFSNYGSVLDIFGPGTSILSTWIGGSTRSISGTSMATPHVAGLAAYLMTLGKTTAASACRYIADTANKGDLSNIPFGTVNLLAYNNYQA

As for `CC[C@H](C)[C@H](NC(=O)[C@H](CC(C)C)NC(=O)[C@H](CCCCN)NC(=O)[C@H](CC(C)C)NC(=O)[C@H](CC(C)C)NC(=O)[C@H](CCCCN)NC(=O)[C@H](CCCNC(=N)N)NC(=O)[C@H](Cc1ccccc1)NC(=O)[C@H](CC(C)C)NC(=O)[C@H](CCCCN)NC(=O)[C@H](CCCNC(=N)N)NC(=O)[C@H](CC(C)C)NC(=O)[C@@H](N)CCCCN)C(=O)N[C@@H](CCCNC(=N)N)C(=O)N[C@@H](CCCCN)C(=O)N[C@@H](CC(C)C)C(=O)N[C@@H](CC(C)C)C(=O)N[C@@H](CCCNC(=N)N)C(=O)O` [Cap11-1-18m^2] (H-KLRKLFRKLLKLIRKLLR-OH), the “Antimicrobial Activity MIC” value in the assay with E. coli ATCC25922 [1] is 32 µg/mL; in the assay on E. coli ATCC25922 [2], 32 µg/mL; in the assay on BW25113 wild-type it was 16 µg/mL; with BW25113 ΔrfaC it was 8 µg/mL; in the assay on BW25113 ΔrfaE it was 8 µg/mL; in the assay on BW25113 ΔrfaF, 8 µg/mL. For the same compound, the “Antimicrobial Activity MIC” value came to 8 µg/mL with BW25113 ΔrfaG; 16 µg/mL in the assay on ATCC25922 ΔrfaC; 16 µg/mL in the assay on ATCC25922 ΔrfaE; 16 µg/mL in the assay with ATCC25922 ΔrfaF; 16 µg/mL in the assay with ATCC25922 ΔrfaG.
On to `CNC(C)C1CCC(N)C(OC2C(N)CC(N)C(OC3OCC(C)(O)C(NC)C3O)C2O)O1` (centres unmarked) [Gentamicin], for which the “antimicrobial activity after protease (in words)” value on proteinase K (proteinase K for 30 minutes, control antibiotic) is listed as “retained its full antimicrobial activity”; at trypsin (trypsin for 30 minutes, control antibiotic), “retained its full antimicrobial activity”. For the same compound, the “Antimicrobial Activity MIC” value on proteinase K (0 min) came out at 1 µg/mL; on proteinase K (0.5 min, then 10 min 90°C) it was 1 µg/mL; on proteinase K (2 min, then 10 min 90°C) it was 1 µg/mL; at proteinase K (5 min, then 10 min 90°C), 1 µg/mL; at proteinase K (15 min, then 10 min 90°C) it was 1 µg/mL; on proteinase K (30 min, then 10 min 90°C), 1 µg/mL. Also, the “Antimicrobial Activity MIC” value at trypsin (0 min) was 1 µg/mL; on trypsin (0.5 min, then 10 min 90°C), 1 µg/mL; at trypsin (2 min, then 10 min 90°C), 1 µg/mL; on trypsin (5 min, then 10 min 90°C), 1 µg/mL; at trypsin (15 min, then 10 min 90°C), 1 µg/mL; on trypsin (30 min, then 10 min 90°C), 1 µg/mL.
With `CC[C@H](C)[C@H](NC(=O)[C@H](CCCCN)NC(=O)[C@H](Cc1c[nH]c2ccccc12)NC(=O)[C@H](CCCNC(=N)N)NC(=O)[C@@H](N)CCCNC(=N)N)C(=O)N[C@H](C(=O)N[C@H](C(=O)N[C@H](C(=O)N[C@@H](CCCNC(=N)N)C(=O)N[C@@H](Cc1c[nH]c2ccccc12)C(=O)N[C@@H](CCCNC(=N)N)C(=O)N[C@@H](CCCNC(=N)N)C(N)=O)[C@@H](C)CC)C(C)C)C(C)C` [Sub5-NH2] (H-RRWKIVVIRWRR-NH2), the “Antimicrobial Activity MIC” value with E. coli ATCC25922 [1] is 4 µg/mL; in the assay on BW25113 wild-type, 4 to 8 µg/mL; in the assay on BW25113 ΔrfaC, 2 µg/mL; in the assay with BW25113 ΔrfaE, 2 µg/mL; in the assay on BW25113 ΔrfaF, 2 µg/mL; in the assay with BW25113 ΔrfaG, 2 µg/mL. Also, the “Antimicrobial Activity MIC” value in the assay with ATCC25922 ΔrfaC, with ATCC25922 ΔrfaE, with ATCC25922 ΔrfaF and in the assay on ATCC25922 ΔrfaG was 1 µg/mL each time.
